Blank lines part the entries; values can stand above or below the compound they belong to.
Tests used:
MCD diet-induced MASH = MCD diet-induced MASH mice, long-term model; format: in vivo, mouse; conditions: oral, 4 weeks, DC646 10 mg/kg, GUDCA 50 mg/kg
Experimental: For the long-term MASH model, 8- to 10-week-old male C57BL/6 J mice were fed with an MCS diet or MCD diet for 2 weeks, before the MCD models were administered with vehicle or GUDCA (50 mg/kg), OCA (30 mg/kg), and DC646 (10 mg/kg) for 4 weeks. The serum, liver, and intestine were collected 2 h after the final dosing. Male Fxr^△IE mice (8–10 weeks old) were fed with a GAN diet for 20 weeks and administered with vehicle or DC646 (10 mg/kg) from the 12th week for 8 weeks. The serum, liver, and intestine were collected 2 h after the final dosing.
The intestine and liver were frozen in liquid nitrogen and stored at −80°C. RNA was extracted, and complementary DNA was synthesized from 1 μg total RNA. RT-qPCR was performed on a Bio-Rad CFX384 Touch detection system (Bio-Rad). The primer sequences for RT-qPCR are shown in Supplementary Table S5. RNA levels were analyzed by 2-^ΔΔCt, normalized to 18S ribosomal RNA and expressed as fold change relative to the control group.
Hepatic TG and TC, and plasma ALT and AST levels were measured using commercial kits from Nanjing Jiancheng Bioengineering Institute according to the manufacturer’s instructions. To measure hepatic TG contents, liver tissues (~10 mg) were homogenized in 100 μL 1% TritonX-100 and centrifuged at 3000 rpm for 10 min. Supernatants were collected, and 2 μL samples were incubated with 200 μL reaction buffer at 37°C for 10 min. Hepatic TG or TC levels were read at 510 or 500 nm using a microplate reader (Versamax, Molecular Devices) and normalized using the protein concentration. To measure plasma ALT and AST levels, reaction buffer 1 and reaction buffer 2 were mixed at a ratio of 1:1, before adding 2 μL plasma sample and 200 μL mixed reaction buffer in a 96-well plate. The data were acquired using the kinetic mode with an interval of 30 s and 31 total reads at 340 nm using a microplate reader (Versamax, Molecular Devices).
Tissue specimens were fixed in 10% formalin for 12–24 h before being dehydrated and paraffin-embedded. The sections were stained with H&E. The NAS was calculated as a summary score including individual components of steatosis (0–3), lobular inflammation (0–3), and hepatocyte ballooning (0–2) for each liver section by a blinded liver pathologist, and the results were reviewed by a blinded hepatologist according to a previous protocol. To visualize liver fibrosis, paraffin-embedded tissue samples were stained with Sirius Red to characterize the collagen deposition. To visualize lipid accumulation and inflammation in the liver, frozen liver sections were stained with Oil Red O and F4/80, and images were acquired using a Leica DM6B laser microdissection system. At least three discontinuous liver sections were evaluated for each mouse.

[1] = target: T1, human FXR alpha (hFXRα)-LBD / SRC2-3 peptide (Homo sapiens, UniProt Q96RI1); test: AlphaScreen assay, recruitment of coactivator peptide SRC2-3 to His-hFXRα-LBD; format: biochemical
T1 construct: 100 nmol/L 6*His-hFXRα-LBD and 100 nmol/L biotinylated co-factor peptide
T1 sequence (Q96RI1 262-486 limits assumed): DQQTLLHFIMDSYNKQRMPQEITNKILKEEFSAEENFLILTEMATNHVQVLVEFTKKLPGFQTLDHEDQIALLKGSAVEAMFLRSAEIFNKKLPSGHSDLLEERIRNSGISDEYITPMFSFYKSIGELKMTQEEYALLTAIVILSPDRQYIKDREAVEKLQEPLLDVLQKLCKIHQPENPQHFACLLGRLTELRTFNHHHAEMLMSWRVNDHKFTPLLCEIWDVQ
Experimental: (§1) An AlphaScreen technology-based assay was performed according to the manufacturer’s instructions with a minor revision. Briefly, the experiment was conducted with compounds at the indicated concentrations, 100 nmol/L 6*His-hFXRα-LBD and 100 nmol/L biotinylated co-factor peptide in the buffer containing 50 mmol/L MOPS, 50 μmol/L CHAPS, 50 mmol/L NaF, and 0.1 mg/mL BSA, pH 7.4. The mixture was incubated with 50 μg/mL nickel acceptor beads and 50 μg/mL streptavidin donor beads in a 384-well plate under green light in the dark at room temperature, before conducting fluorescence measurement with excitation at 680 nm and emission at 550 nm on an Envision microplate analyzer (PE 2102-8340, PerkinElmer Life Sciences).

[2] = target: T2, human FXR alpha (hFXRα)-LBD / NcoR2 peptide (Homo sapiens, UniProt Q96RI1); test: AlphaScreen assay, recruitment of corepressor peptide NcoR2 to His-hFXRα-LBD; format: biochemical; conditions: compound alone incubated with His-hFXRα-LBD; read-out: EC50 in recruiting the NcoR2 peptide
T2 construct: 100 nmol/L 6*His-hFXRα-LBD and 100 nmol/L biotinylated co-factor peptide
T2 sequence (Q96RI1 262-486 limits assumed): T1 sequence (Q96RI1 262-486 limits assumed)
Experimental: as §1

Compound: C[C@H](CCC(=O)NCC(=O)O)[C@H]1CC[C@H]2[C@@H]3[C@@H](O)C[C@@H]4C[C@H](O)CC[C@]4(C)[C@H]3CC[C@]12C [GUDCA, glycoursodeoxycholic acid, reference compound]
Hepatic mRNA levels of inflammation-related genes (MCD diet-induced MASH): significantly decreased | Hepatic mRNA levels of lipid metabolism-related genes / hepatic lipid accumulation (MCD diet-induced MASH; OCA 30 mg/kg): only had minor effect

Inhibition of SRC2-3 recruitment in the presence of CDCA (library screen) ([1]; DC644 at 10 μmol/L compared with GUDCA and GlyMCA at 50 μmol/L): more potent
Compound: N,N'-((1^2S,1^4R,14^2S,14^4R,4S,17S)-5,13,18,26-tetraoxo-2^1,15^1-bis(triisopropylsilyl)-2^1H,15^1H-6,19-dioxa-12,25-diaza-1(4,2),14(2,4)-dimorpholina-2,15(4,3)-diindolacyclohexacosaphane-4,17-diyl)bis(1,1,1-trifluoromethanesulfonamide) [DC644]

Compound: CC[C@H]1[C@@H](O)[C@@H]2[C@H](CC[C@]3(C)[C@@H]([C@H](C)CCC(=O)O)CC[C@@H]23)[C@@]2(C)CC[C@@H](O)C[C@@H]12 [OCA, reference compound]
Hepatic mRNA levels of lipid metabolism-related genes / hepatic lipid accumulation (MCD diet-induced MASH; OCA 30 mg/kg): markedly downregulated | Serum alanine aminotransferase (ALT) level (MCD diet-induced MASH; OCA 30 mg/kg): cannot improve

Compound: Ivermectin [reference compound]
EC50 [2]: 2190 nM | EC50 ([1]; compound alone incubated with His-hFXRα-LBD, read-out: EC50 in recruiting the SRC2-3 peptide): 960 nM

Reference: publication PMC11992618, “Development of cyclopeptide inhibitors specifically disrupting FXR–coactivator interaction in the intestine as a novel therapeutic strategy for MASH” (Life Metabolism, 2025)
